Publication PMC12916490 (Molecular Psychiatry, 2025)

Key:
[1] = system: 5-HT2A receptor; assay: 5-HT2A receptor activation bias factors (relative intrinsic activity, 5-HT reference); format: cell-based, human; conditions: 5-HT as reference agonist; positive = preference for numerator pathway
Experimental: (§1) The IC50 values from the radioligand binding assays were determined by nonlinear regression, using three independent concentration-response curves fitted to a one-site model. The Cheng-Prusoff equation was used to calculate Kᵢ values for the competing ligands. EC50 values were determined by applying nonlinear regression to concentration-response curves. Bias factors (β) were calculated based on the relative intrinsic activity approach. More detailed information can be found in the Supplementary information. Mean values for total number of HTR, change in body temperature from pre to post session (Δ°C), and total distance traveled (cm) for each drug dose were compared (p < 0.05) via Welch’s ANOVA with Dunnett’s T3 post test, comparing all doses to respective vehicle controls (0 mg/kg). Welch’s ANOVA with Dunnett’s T3 post test was also used to compare drug concentrations, but the data were compared to DOM in this case. Dose–response relationships for HTR and locomotor activities were plotted using bell-shaped curve fits, while temperature change data were plotted using four-parameter non-linear regression curve fits. The ascending phase of the HTR curve for each drug was used to determine ED50 potency values from four parameter non-linear regression fits. For combined DOM and DOAM administration, the plasma, brain tissue, and brain dialysate drug concentrations were compared using paired t-tests (p < 0.05).
Bias factors close to 0 imply no bias toward either tested signaling pathway. Positive values indicate a preference for pathway 1, and negative values indicate a preference for pathway 2, relative to the reference agonist 5-HT. […]
the β-arrestin 2 molecule in the NanoBiT system) were seeded at a density of 50,000 cells per well in poly - D-lysine-coated 96-well plates in medium containing 10% dialyzed FBS. The plate was then incubated at […]
The following day, the cells were washed twice with 150 µL HBSS, and 100 µL HBSS was subsequently added to each well. Thereafter, 25 µL of substrate (1 :20 diluted in buffer) was added, and […]
agonist solutions was added, and the signal was monitored for 2 h. Drug dilutions in HBSS were made from 10 mM stock solutions in DMSO , yielding concentration ranges from 10 µM to 10 pM. All concentrations were run in duplicate and included the appropriate solvent controls. Efficacy was normalized to 5 -HT […]
3.2.3 Arachidonic acid release
Arachidonic acid release was assessed as a marker for Gαi/o,12/13 mediated signaling.
NIH/3T3 cells stably expressing the 5 -HT2A receptor were seeded at a density of 75,000 cells per well in a poly-D-lysine-coated 48-well plate. The following day, the cells were labeled with 300 μL [ 3H]arachidonic […]
Thereafter, the cells were washed 3 times for
(10 mM) of test substances were prepared in DMSO. The final dilution series of test substances dissolved […]
Thereafter, the plate was put on ice, and 400 μL incubation supernatant per well was transferred int o scintillation vials containing scintillation fluid (Ultimagold, Perkin Elmer, Schwerzenbach, Switzerland). The remaining supernatant was removed, and the cells were lysed with 1% sodium dodecyl sulfate lysis buffer. The obtained cell lysate was transferred into scintillation vials containing scintillation fluid. Radioactivity was measured on a liquid scintillation counter (Packard 1900 TR Tri-Carb Liquid Scintillation Counter; Packard Instrument Company). Efficacy was normalized to 5-HT activity.
3.2.4 Calculation of bias factors […]
using 5-HT as the reference agonist.
RApathway = EC50, i = EC50, ref×Emax,i […]
Then, the obtained RA values were used to calculate the bias factor (β) for each pathway combination. […]
pathway 1 over pathway 2. Brown-Forsythe and Welch ANOVA analyses were applied to estimate the […]

[2] = target: h5-HT2B (Homo sapiens, UniProt P41595); assay: IP1 formation (Gαq-mediated signaling), h5-HT2B; format: cell-based; conditions: for Emax: read-out: IP1 formation Emax h5-HT2B (95% CI), normalized to maximal effect of 5-HT
Chain of h5-HT2B (P41595 whole entry): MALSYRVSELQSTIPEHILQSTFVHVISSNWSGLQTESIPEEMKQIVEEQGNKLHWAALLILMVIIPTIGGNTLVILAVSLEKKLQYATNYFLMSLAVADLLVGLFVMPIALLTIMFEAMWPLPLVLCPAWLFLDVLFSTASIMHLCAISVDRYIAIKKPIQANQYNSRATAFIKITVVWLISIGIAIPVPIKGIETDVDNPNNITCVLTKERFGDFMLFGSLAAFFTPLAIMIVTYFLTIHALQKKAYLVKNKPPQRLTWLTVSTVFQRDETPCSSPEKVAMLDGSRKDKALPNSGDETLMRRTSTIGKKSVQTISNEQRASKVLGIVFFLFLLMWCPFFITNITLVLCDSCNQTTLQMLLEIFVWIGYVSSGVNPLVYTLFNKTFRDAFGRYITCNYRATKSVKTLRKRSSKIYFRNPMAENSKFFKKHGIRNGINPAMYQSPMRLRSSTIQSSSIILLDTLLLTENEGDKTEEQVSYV

[3] = target: T1, hSERT (Homo sapiens, UniProt P31645); assay: Radioligand binding, hSERT ([3H]citalopram)
T1 construct: expressed in transfected cells; host or cells: HEK 293 cells (membrane preparation)
T1 sequence (P31645 whole entry): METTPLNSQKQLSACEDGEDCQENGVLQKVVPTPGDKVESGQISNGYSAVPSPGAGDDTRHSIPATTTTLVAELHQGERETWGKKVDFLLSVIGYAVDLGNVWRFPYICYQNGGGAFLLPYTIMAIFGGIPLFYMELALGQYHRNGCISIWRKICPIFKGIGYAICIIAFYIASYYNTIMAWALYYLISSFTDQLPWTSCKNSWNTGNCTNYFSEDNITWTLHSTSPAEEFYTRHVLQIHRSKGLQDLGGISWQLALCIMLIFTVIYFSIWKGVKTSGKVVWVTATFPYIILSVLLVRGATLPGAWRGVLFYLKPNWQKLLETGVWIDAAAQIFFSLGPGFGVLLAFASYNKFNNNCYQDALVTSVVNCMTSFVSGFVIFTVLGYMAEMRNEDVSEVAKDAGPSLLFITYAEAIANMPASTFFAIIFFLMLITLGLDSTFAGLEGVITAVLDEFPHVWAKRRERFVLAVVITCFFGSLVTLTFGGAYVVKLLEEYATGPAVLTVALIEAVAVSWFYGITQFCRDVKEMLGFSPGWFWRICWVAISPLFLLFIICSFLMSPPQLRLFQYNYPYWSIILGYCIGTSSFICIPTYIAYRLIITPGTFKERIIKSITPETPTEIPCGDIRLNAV
Experimental: Binding affinities at human monoamine receptors and transporters were assessed as previously reported. A detailed description of the methodology is provided in the Supplementary information.
as §1
3.1 Assessment of receptor and transporter binding affinities
Membrane preparations were prepared from cells transfected with the respective target. The membrane preparations were then incubated with selective radioligands at concentrations equal to the corresponding Kd and displacement of the ligand by the drugs was measured. The difference between total binding and nonspecific binding (determined in the presence of selective competitors) was defined as specific binding of the radioligand to the target receptor. The following transfected cell lines were used for the binding assays: HEK 293 cells (h5-HT1A, h5-HT2A, h5-HT2B, h5-HT2C, and hD2 receptors, hDAT, hNET, and hSERT), Chinese hamster ovary cells (hα 1A receptor), and Chinese hamster lung cells (hα 2A receptor).
3.1.1 Membrane preparations for receptor and transporter binding
For producing membrane preparations, transfected cells were harvested with trypsin/EDTA, washed with ice-cold phosphate buffered saline, and then pelleted by centrifugation (210 × g for 5 min at 4 °C). The pellets were frozen and stored at -80 °C until use. Frozen pellets were resuspended in 20 m L (receptor binding) or 400 m L (transporter binding) buffer (20 mM HEPES -NaOH, 10 mM EDTA, pH 7.4), and homogenized at 1,100 × g for 20 s (receptor binding) or 560 × g for 15 s (transporter binding); the homogenates were then centrifuged at 48,000 × g for 30 min at 4 °C. For receptor binding assays, the supernatants were discarded and the pellets were resuspended in 20 mL buffer (20 mM HEPES-NaOH, 0.1 mM EDTA, pH 7.4) and homogenized at 1 ,100 × g for 20 s. Centrifugation and discarding of the supernatant were repeated once, and the final pellet was then resuspended in buffer and homogenized.
3.1.2 Serotonin 5-HT1A and 5-HT2A receptor binding
Competitive binding at the h5-HT1A and h5-HT2A receptor was determined using 0.90 nM [ 3H]8-hydroxy-2-(di-n-propylamine)tetralin ([ 3H]8-OH-DPAT; h5-HT1A receptor agonist) and 0.40 nM [3H]ketanserin (h5-HT2 receptor antagonist) as radioligands. […]
binding of the radioligands was defined as difference between total binding (binding buffer alone) and nonspecific binding determined in the presence of 10 μM pindolol (h5-HT1A receptor antagonist) or 10 μM spiperone (h 5-HT2A receptor antagonist).

[4] = hSERT Ki, mean (95% CI), HEK 293 membranes

Row | SMILES | Bias factor β Gαi/o,12/13/Gαq [1] | Bias factor β Gαi/o,12/13/β-arrestin 2 [1] | Bias factor β β-arrestin 2/Gαq [1] | EC50 [2] [µM] | Emax [2] [%] | Ki [3, 4] [µM] | Ki ([3]; Ki SERT, text value (range DAT and SERT 3.6–4.6)) [µM]
1 | CCCc1cc(OC)c(CC(C)N)cc1OC.Cl (stereo not shown) [DOPR, 4-propyl-2,5-dimethoxyamphetamine hydrochloride] | -0.53 | 0.11 | -0.64 | 0.228 | 96 | > 7 | –
2 | CCCCCc1cc(OC)c(CC(C)N)cc1OC (stereo not shown) [DOAM, 4-amyl-2,5-dimethoxyamphetamine] | -0.30 | 0.43 | -0.73 | 0.572 | 106 | 4.63 | 4.6
3 | COc1ccc(OC)c(CC(C)N)c1.Cl (stereo not shown) [2,5-DMA, 2,5-Dimethoxyamphetamine hydrochloride] | 0.37 | 0.29 | 0.09 | 93.3 | 94 | > 7 | –
4 | COc1cc(CC(C)N)c(OC)cc1C (stereo not shown) [DOM, 4-methyl-2,5-dimethoxyamphetamine] | 0.04 | 0.39 | -0.35 | 0.688 | 91 | > 7 | –
5 | CCCCc1cc(OC)c(CC(C)N)cc1OC (stereo not shown) [DOBU, 4-butyl-2,5-dimethoxyamphetamine] | -0.61 | 0.25 | -0.86 | 0.57 | 122 | > 7 | –
6 | CCc1cc(OC)c(CC(C)N)cc1OC (stereo not shown) [DOET, 4-ethyl-2,5-dimethoxyamphetamine] | 0.16 | 0.07 | 0.08 | 0.236 | 95 | > 7 | –
